Results on five compounds are retold here after paper PMC8722715 (Frontiers in Cell and Developmental Biology, 2021).

One experiment concerns the target T1, hNaV1.7 channel (Homo sapiens, UniProt Q15858).
T1 construct: expressed in transfected cells
As to the kind of experiment: Automated patch-clamp block of hNaV1.7 peak Na+ current in CHO cells. The experiment is classed as cell-based. The following applies: for IC50: CHO cells stably expressing hNaV1.7, SyncroPatch 384 PE whole-cell, holding -100 mV, -10 mV test pulse 50 ms every 5 s, room temperature 18-22°C, 0.3% BSA, steady state or end of 15-min application, mean, S.E.M. and n cells; for hNaV1.7/hNaV1.6 selectivity ratio: inverse ratio of the mean IC50 values on hNaV1.7 (CHO) and hNaV1.6 (HEK-293) of Table 1; for hNaV1.7 IC50 versus WT: ratio of analogue mean IC50 to HwTx-IV WT mean IC50 on hNaV1.7. Here is the method:
(§1) CHO cells stably expressing the hNaV1.7 channel subtype were cultured in Dulbecco’s Modified Eagle’s Medium F-12 (DMEM/F12) supplemented with 10% fetal bovine serum, 2 mM glutamine, 200 μg/ml hygromycine B, 10 U/ml penicillin and 10 μg/ml streptomycin (Gibco, Grand Island, NY). HEK-293 cells stably expressing the hNaV1.6 channel subtype were cultured in Dulbecco’s Modified Eagle’s Medium (DMEM) supplemented with 10% fetal calf serum, 1 mM pyruvic acid, 4.5 g/L glucose, 2 mM glutamine, 800 μg/ml G418, 10 U/ml penicillin and 10 μg/ml streptomycin (Gibco, Grand Island, NY). All cell lines were incubated at 37°C in a 5% CO2 atmosphere. For electrophysiological recordings, cells were detached with trypsin, and floating single cells were diluted (∼300,000 cells/ml) in an extracellular solution containing (in mM): 140 NaCl, 4 KCl, 2 CaCl2, 1 MgCl2, 5 glucose and 10 HEPES (pH 7.4, osmolarity 298 mOsm), that was used throughout the experiments.
HwTx-IV analogues were investigated on CHO cells expressing hNav1.7 channel and HEK-293 cells expressing hNaV1.6 channel using the automated patch-clamp system from Nanion (SyncroPatch 384 PE; München, Germany). Chips with single-hole and high-resistance (∼6–7 MΩ) were used for both cell lines. Voltage pulses and whole-cell recordings were achieved using the PatchControl384 v1.5.2 software (Nanion) and the Biomek v1.0 interface (Beckman Coulter). Prior to recordings, dissociated cells were shaken at 200 RPM in a cell hotel reservoir at 10°C. After cell catching, sealing, whole-cell formation, liquid application, recording, and data acquisition were all performed sequentially and automatically. The intracellular solution contained (in mM): 110 CsF, 10 CsCl, 10 NaCl, 1 MgCl2, 1 CaCl2, 10 EGTA and 10 HEPES (pH 7.2, osmolarity 280 mOsm), and the extracellular solution was as described above. Whole-cell experiments were done at −100 mV holding potential and at room temperature (18–22°C), while currents triggered at either −10 or 0 mV test potential were sampled at 20 kHz. Stimulation frequency was set at 0.2 Hz. Each HwTx-IV analogue was prepared at various concentrations in the extracellular solution, itself supplemented with 0.3% of bovine serum albumin (BSA), also added in the control solution. […] Compound solutions were diluted 3 times in the patch-clamp recording well by adding 30–60 μl external solution, to reach the final reported concentration and the test volume of 90 μl. For establishing dose-response curves, the compounds were tested at a test potential of either −10 or 0 mV for 50 ms with a pulse every 5 s. Percentages of current inhibition were measured at steady-state of blockage or at the end of a 15-min application time.
In general terms: The patch-clamp technique gives a direct electrical read-out from membranes.

The target in the next experiment is T2, hNaV1.6 channel (Homo sapiens, UniProt Q9UQD0).
T2 construct: expressed in transfected cells
T2 sequence (Q9UQD0 whole entry): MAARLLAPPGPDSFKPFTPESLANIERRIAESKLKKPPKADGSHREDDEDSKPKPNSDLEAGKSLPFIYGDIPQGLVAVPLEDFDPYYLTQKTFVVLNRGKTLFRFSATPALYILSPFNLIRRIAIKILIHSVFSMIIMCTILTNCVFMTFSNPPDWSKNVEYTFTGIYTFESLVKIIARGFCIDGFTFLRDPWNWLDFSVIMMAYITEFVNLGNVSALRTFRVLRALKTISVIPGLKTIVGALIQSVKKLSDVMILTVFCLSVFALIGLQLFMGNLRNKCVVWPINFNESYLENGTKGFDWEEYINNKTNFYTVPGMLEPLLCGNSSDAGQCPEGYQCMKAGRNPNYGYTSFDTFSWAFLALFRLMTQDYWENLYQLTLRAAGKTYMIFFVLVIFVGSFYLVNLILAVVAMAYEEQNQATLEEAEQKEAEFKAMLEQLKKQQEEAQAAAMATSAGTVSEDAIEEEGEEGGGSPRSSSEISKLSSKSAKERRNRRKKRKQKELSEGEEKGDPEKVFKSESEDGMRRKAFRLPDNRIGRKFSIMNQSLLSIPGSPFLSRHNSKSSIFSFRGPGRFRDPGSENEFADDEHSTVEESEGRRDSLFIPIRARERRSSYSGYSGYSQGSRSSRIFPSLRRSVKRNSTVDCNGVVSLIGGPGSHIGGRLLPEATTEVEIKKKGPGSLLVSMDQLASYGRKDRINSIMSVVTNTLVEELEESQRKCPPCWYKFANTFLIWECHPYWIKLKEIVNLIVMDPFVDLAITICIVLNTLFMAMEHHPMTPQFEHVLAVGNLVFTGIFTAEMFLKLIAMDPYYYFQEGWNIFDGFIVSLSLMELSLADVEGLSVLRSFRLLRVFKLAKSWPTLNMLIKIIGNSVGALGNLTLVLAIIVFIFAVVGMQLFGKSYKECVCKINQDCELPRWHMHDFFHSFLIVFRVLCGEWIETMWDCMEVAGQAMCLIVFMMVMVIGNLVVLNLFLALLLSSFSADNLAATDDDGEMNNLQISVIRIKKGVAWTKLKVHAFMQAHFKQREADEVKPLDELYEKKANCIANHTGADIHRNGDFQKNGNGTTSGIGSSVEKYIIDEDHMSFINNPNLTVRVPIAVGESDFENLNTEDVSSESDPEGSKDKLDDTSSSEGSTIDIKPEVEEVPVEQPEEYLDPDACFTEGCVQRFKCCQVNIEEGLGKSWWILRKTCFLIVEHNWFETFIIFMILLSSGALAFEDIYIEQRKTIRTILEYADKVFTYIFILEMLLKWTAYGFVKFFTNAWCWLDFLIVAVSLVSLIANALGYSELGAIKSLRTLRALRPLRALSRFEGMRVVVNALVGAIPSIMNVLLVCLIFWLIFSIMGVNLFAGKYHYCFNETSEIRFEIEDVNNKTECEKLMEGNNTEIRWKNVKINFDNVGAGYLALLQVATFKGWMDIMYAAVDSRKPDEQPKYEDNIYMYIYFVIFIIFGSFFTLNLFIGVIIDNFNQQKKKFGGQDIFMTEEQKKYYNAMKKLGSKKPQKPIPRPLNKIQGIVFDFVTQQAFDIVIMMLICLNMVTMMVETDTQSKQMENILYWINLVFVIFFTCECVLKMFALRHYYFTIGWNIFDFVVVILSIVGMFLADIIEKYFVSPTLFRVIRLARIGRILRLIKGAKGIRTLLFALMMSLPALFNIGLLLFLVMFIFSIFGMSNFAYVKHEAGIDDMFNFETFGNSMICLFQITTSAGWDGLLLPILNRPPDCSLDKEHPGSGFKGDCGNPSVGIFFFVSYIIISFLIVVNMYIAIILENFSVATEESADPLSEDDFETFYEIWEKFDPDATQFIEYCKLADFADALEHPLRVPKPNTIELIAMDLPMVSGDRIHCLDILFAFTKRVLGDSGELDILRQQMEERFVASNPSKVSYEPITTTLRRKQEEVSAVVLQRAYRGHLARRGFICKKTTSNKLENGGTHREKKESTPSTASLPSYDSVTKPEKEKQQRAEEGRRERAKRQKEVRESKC
As to the kind of experiment: Automated patch-clamp block of hNaV1.6 peak Na+ current in HEK-293 cells. Type of experiment: cell-based. The following applies: for IC50: HEK-293 cells stably expressing hNaV1.6, SyncroPatch 384 PE whole-cell, holding -100 mV, 0 mV test pulse 50 ms every 5 s, room temperature 18-22°C, 0.3% BSA, steady state or end of 15-min application, mean, S.E.M. and n cells; for hNaV1.6 IC50 versus WT: ratio of analogue mean IC50 to HwTx-IV WT mean IC50 on hNaV1.6. Here is the method:
as §1
HwTx-IV analogues were investigated on CHO cells expressing hNav1.7 channel and HEK-293 cells expressing hNaV1.6 channel using the automated patch-clamp system from Nanion (SyncroPatch 384 PE; München, Germany). Chips with single-hole and high-resistance (∼6–7 MΩ) were used for both cell lines. Voltage pulses and whole-cell recordings were achieved using the PatchControl384 v1.5.2 software (Nanion) and the Biomek v1.0 interface (Beckman Coulter). Prior to recordings, dissociated cells were shaken at 200 RPM in a cell hotel reservoir at 10°C. After cell catching, sealing, whole-cell formation, liquid application, recording, and data acquisition were all performed sequentially and automatically. The intracellular solution contained (in mM): 110 CsF, 10 CsCl, 10 NaCl, 1 MgCl2, 1 CaCl2, 10 EGTA and 10 HEPES (pH 7.2, osmolarity 280 mOsm), and the extracellular solution was as described above. Whole-cell experiments were done at −100 mV holding potential and at room temperature (18–22°C), while currents triggered at either −10 or 0 mV test potential were sampled at 20 kHz. Stimulation frequency was set at 0.2 Hz. Each HwTx-IV analogue was prepared at various concentrations in the extracellular solution, itself supplemented with 0.3% of bovine serum albumin (BSA), also added in the control solution. The peptides were distributed in 384-well microplates according to the number of compounds to be tested (generally four), the concentration range defined from the IC50 of wild-type HwTx-IV, and the number of cells desired for each experimental condition. Compound solutions were diluted 3 times in the patch-clamp recording well by adding 30–60 μl external solution, to reach the final reported concentration and the test volume of 90 μl. For establishing dose-response curves, the compounds were tested at a test potential of either −10 or 0 mV for 50 ms with a pulse every 5 s. Percentages of current inhibition were measured at steady-state of blockage or at the end of a 15-min application time.

A value given as a limit tells only on which side of the number the result lay.

T1 sequence (Q15858 whole entry): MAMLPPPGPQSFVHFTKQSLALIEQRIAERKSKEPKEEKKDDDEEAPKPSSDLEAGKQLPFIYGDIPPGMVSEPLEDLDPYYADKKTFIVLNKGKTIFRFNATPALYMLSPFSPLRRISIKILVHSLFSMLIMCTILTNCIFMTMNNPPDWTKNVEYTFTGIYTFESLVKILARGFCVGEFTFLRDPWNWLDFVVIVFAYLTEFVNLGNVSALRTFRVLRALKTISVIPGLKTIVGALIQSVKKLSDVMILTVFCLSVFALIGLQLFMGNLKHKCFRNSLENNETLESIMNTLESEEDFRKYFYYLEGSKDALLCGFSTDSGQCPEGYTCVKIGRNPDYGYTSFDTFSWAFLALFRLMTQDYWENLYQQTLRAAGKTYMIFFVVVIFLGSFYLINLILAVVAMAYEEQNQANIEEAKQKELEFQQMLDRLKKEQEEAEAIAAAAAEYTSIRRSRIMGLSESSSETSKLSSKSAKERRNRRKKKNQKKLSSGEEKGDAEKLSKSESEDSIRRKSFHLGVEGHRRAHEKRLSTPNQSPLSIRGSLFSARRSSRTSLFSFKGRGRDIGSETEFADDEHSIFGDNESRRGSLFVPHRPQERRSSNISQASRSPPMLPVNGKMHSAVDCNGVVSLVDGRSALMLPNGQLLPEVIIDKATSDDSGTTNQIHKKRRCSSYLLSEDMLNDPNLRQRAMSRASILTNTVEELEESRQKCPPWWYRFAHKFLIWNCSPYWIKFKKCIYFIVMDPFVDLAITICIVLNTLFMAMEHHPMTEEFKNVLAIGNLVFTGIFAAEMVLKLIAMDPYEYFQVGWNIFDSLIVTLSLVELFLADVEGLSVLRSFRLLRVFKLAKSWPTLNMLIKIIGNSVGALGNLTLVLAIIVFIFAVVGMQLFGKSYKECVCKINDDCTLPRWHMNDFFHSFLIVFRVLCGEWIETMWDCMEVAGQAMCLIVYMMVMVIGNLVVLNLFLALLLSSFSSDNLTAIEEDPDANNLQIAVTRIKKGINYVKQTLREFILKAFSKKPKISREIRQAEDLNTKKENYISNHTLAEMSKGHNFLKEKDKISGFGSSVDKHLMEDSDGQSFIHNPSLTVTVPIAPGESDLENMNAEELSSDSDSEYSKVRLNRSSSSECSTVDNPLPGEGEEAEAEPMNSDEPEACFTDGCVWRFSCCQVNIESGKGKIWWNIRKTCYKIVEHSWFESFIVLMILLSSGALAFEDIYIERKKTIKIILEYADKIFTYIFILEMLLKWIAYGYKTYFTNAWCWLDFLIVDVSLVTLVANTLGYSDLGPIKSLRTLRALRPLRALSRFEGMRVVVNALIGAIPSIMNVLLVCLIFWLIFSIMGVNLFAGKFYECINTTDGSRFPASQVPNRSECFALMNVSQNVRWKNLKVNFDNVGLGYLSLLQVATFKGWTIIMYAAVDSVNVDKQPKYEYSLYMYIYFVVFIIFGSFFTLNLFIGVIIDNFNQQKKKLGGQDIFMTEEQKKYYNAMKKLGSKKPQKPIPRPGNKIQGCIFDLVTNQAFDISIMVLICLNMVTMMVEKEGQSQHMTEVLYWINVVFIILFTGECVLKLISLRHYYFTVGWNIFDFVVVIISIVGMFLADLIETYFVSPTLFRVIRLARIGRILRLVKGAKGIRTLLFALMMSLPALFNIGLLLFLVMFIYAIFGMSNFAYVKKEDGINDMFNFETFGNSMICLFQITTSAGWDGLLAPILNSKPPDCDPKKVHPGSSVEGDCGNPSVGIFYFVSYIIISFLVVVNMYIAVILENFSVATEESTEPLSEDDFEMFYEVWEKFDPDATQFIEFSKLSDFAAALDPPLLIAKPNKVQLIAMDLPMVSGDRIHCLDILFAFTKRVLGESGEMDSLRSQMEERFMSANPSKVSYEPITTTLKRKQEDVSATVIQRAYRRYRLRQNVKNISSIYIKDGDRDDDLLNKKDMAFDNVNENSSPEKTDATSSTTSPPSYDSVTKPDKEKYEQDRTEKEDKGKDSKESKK

Regarding `CC[C@H](C)[C@H](NC(=O)[C@H](CCC(N)=O)NC(=O)[C@H](Cc1ccc(O)cc1)NC(=O)[C@H](CCCCN)NC(=O)[C@@H]1CSSC[C@@H]2NC(=O)[C@H](CCC(N)=O)NC(=O)[C@H](CC(=O)O)NC(=O)[C@H](CC(N)=O)NC(=O)[C@H](CO)NC(=O)[C@@H]3CCCN3C(=O)[C@H](CC(N)=O)NC(=O)[C@@H]3CSSC[C@H](NC(=O)[C@H](C(C)C)NC(=O)[C@H](CC(C)C)NC(=O)[C@H](CCCCN)NC(=O)[C@H](CO)NC(=O)[C@H](CO)NC(=O)[C@H](CCCCN)NC(=O)[C@H](CSSC[C@H](NC(=O)[C@@H](N)CCC(=O)O)C(=O)N[C@@H](CC(C)C)C(=O)N[C@@H](CCCCN)C(=O)N[C@@H]([C@@H](C)CC)C(=O)N[C@@H](Cc4ccccc4)C(=O)N[C@@H](CCCCN)C(=O)N[C@@H](C)C(=O)N3)NC2=O)C(=O)N[C@@H](CO)C(=O)N[C@@H](CCC(N)=O)C(=O)N[C@@H](CCCCN)C(=O)N[C@@H]([C@@H](C)O)C(=O)N[C@@H](CCCNC(=N)N)C(=O)N[C@@H](Cc2c[nH]c3ccccc23)C(=O)N1)C(N)=O` [HwTx-IV E^4K/R ^26Q], on hNaV1.7 channel, it took 0.0036 µM to reach half-maximal inhibition (IC50), the hNaV1.7/hNaV1.6 selectivity ratio result was “less than 2” and the “hNaV1.7 IC50 versus WT” value was 0.36. Moreover, at hNaV1.6 channel, the IC50 (in general, the point on the concentration scale where inhibition reaches its midpoint) stood at 0.0034 µM and the “hNaV1.6 IC50 versus WT” value is reported as 0.02.

`CC[C@H](C)[C@H](NC(=O)[C@H](CCC(N)=O)NC(=O)[C@H](Cc1ccc(O)cc1)NC(=O)[C@H](CC(N)=O)NC(=O)[C@@H]1CSSC[C@@H]2NC(=O)[C@H](CCC(N)=O)NC(=O)[C@H](CC(=O)O)NC(=O)[C@H](CC(N)=O)NC(=O)[C@H](CO)NC(=O)[C@@H]3CCCN3C(=O)[C@H](CC(N)=O)NC(=O)[C@@H]3CSSC[C@H](NC(=O)[C@H](C(C)C)NC(=O)[C@H](CC(C)C)NC(=O)[C@H](CCCCN)NC(=O)[C@H](CO)NC(=O)[C@H](CO)NC(=O)[C@H](CCCCN)NC(=O)[C@H](CSSC[C@H](NC(=O)[C@@H](N)CCC(=O)O)C(=O)N[C@@H](CC(C)C)C(=O)N[C@@H](CCCNC(=N)N)C(=O)N[C@@H]([C@@H](C)CC)C(=O)N[C@@H](Cc4ccccc4)C(=O)N[C@@H](CCCCN)C(=O)N[C@@H](C)C(=O)N3)NC2=O)C(=O)N[C@@H](CO)C(=O)N[C@@H](CCCNC(=N)N)C(=O)N[C@@H](CCCCN)C(=O)N[C@@H]([C@@H](C)O)C(=O)N[C@@H](CCCNC(=N)N)C(=O)N[C@@H](Cc2c[nH]c3ccccc23)C(=O)N1)C(N)=O` [HwTx-IV E^4R/K^32N]: at hNaV1.7 channel, the IC50 was greater than 1 µM and the “hNaV1.7 IC50 versus WT” value was greater than 101. Further, on hNaV1.6 channel, the IC50 was greater than 0.333 µM and the “hNaV1.6 IC50 versus WT” value is recorded as greater than 1.5.

As to `CC[C@H](C)[C@H](NC(=O)[C@H](CCC(N)=O)NC(=O)[C@H](Cc1ccc(O)cc1)NC(=O)[C@H](CCCCN)NC(=O)[C@@H]1CSSC[C@@H]2NC(=O)[C@H](CCC(N)=O)NC(=O)[C@H](CC(=O)O)NC(=O)[C@H](CC(N)=O)NC(=O)[C@H](CO)NC(=O)[C@@H]3CCCN3C(=O)[C@H](CC(N)=O)NC(=O)[C@@H]3CSSC[C@H](NC(=O)[C@H](C(C)C)NC(=O)[C@H](CC(C)C)NC(=O)[C@H](CCCCN)NC(=O)[C@H](CO)NC(=O)[C@H](CO)NC(=O)[C@H](C)NC(=O)[C@H](CSSC[C@H](NC(=O)[C@@H](N)CCC(=O)O)C(=O)N[C@@H](CC(C)C)C(=O)N[C@@H](CCC(=O)O)C(=O)N[C@@H]([C@@H](C)CC)C(=O)N[C@@H](Cc4ccccc4)C(=O)N[C@@H](CCCCN)C(=O)N[C@@H](C)C(=O)N3)NC2=O)C(=O)N[C@@H](CO)C(=O)N[C@@H](CCCNC(=N)N)C(=O)N[C@@H](CCCCN)C(=O)N[C@@H]([C@@H](C)O)C(=O)N[C@@H](CCCNC(=N)N)C(=O)N[C@@H](Cc2c[nH]c3ccccc23)C(=O)N1)C(N)=O` [HwTx-IV K^18A], on hNaV1.7 channel, the concentration for half-maximal inhibition (IC50) was 0.0064 µM, the hNaV1.7/hNaV1.6 selectivity ratio entry is given as “above 46” and the “hNaV1.7 IC50 versus WT” value was 0.65. For the same compound, on hNaV1.6 channel, half-maximal inhibition (IC50) was put at 0.416 µM and the “hNaV1.6 IC50 versus WT” value amounted to 1.84.

`CC[C@H](C)[C@H](NC(=O)[C@H](CCC(N)=O)NC(=O)[C@H](Cc1ccc(O)cc1)NC(=O)[C@H](CC(N)=O)NC(=O)[C@@H]1CSSC[C@@H]2NC(=O)[C@H](CCC(N)=O)NC(=O)[C@H](CC(=O)O)NC(=O)[C@H](CC(N)=O)NC(=O)[C@H](CO)NC(=O)[C@@H]3CCCN3C(=O)[C@H](CC(N)=O)NC(=O)[C@@H]3CSSC[C@H](NC(=O)[C@H](C(C)C)NC(=O)[C@H](CC(C)C)NC(=O)[C@H](CCCCN)NC(=O)[C@H](CO)NC(=O)[C@H](CO)NC(=O)[C@H](CCCCN)NC(=O)[C@H](CSSC[C@H](NC(=O)[C@@H](N)CCC(=O)O)C(=O)N[C@@H](CC(C)C)C(=O)N[C@@H](CCC(=O)O)C(=O)N[C@@H]([C@@H](C)CC)C(=O)N[C@@H](Cc4ccccc4)C(=O)N[C@@H](CCCCN)C(=O)N[C@@H](C)C(=O)N3)NC2=O)C(=O)N[C@@H](CO)C(=O)N[C@@H](CCCNC(=N)N)C(=O)N[C@@H](CCCCN)C(=O)N[C@@H]([C@@H](C)O)C(=O)N[C@@H](CCCNC(=N)N)C(=O)N[C@@H](Cc2c[nH]c3ccccc23)C(=O)N1)C(N)=O` [HwTx-IV K^32N]: at hNaV1.7 channel, the IC50 was determined as 5.75 µM and the “hNaV1.7 IC50 versus WT” value came out at 581. Moreover, on hNaV1.6 channel, the IC50 is greater than 1 µM and the “hNaV1.6 IC50 versus WT” value is listed as greater than 4.4.

On to `CC[C@H](C)[C@H](NC(=O)[C@H](CCC(N)=O)NC(=O)[C@H](Cc1ccc(O)cc1)NC(=O)[C@H](CCCCN)NC(=O)[C@@H]1CSSC[C@@H]2NC(=O)[C@H](CCC(N)=O)NC(=O)[C@H](CC(=O)O)NC(=O)[C@H](CC(N)=O)NC(=O)[C@H](CO)NC(=O)[C@@H]3CCCN3C(=O)[C@H](CC(N)=O)NC(=O)[C@@H]3CSSC[C@H](NC(=O)[C@H](C(C)C)NC(=O)[C@H](CC(C)C)NC(=O)[C@H](CCCCN)NC(=O)[C@H](CO)NC(=O)[C@H](CO)NC(=O)[C@H](CCCCN)NC(=O)[C@H](CSSC[C@H](NC(=O)[C@@H](N)CCC(=O)O)C(=O)N[C@@H](CC(C)C)C(=O)N[C@@H](CCC(=O)O)C(=O)N[C@@H]([C@@H](C)CC)C(=O)N[C@@H](Cc4ccccc4)C(=O)N[C@@H](CCCCN)C(=O)N[C@@H](C)C(=O)N3)NC2=O)C(=O)N[C@@H](CO)C(=O)N[C@@H](CCCNC(=N)N)C(=O)N[C@@H](CCCCN)C(=O)N[C@@H]([C@@H](C)O)C(=O)N[C@@H](CCCNC(=N)N)C(=O)N[C@@H](Cc2c[nH]c3ccccc23)C(=O)N1)C(=O)N[C@@H](CCCCN)C(=O)O` [HwTx-IV K^36/CterCOOH], for which, on hNaV1.7 channel, the IC50 stood at 0.029 µM, the hNaV1.7/hNaV1.6 selectivity ratio result is “above 46” and the “hNaV1.7 IC50 versus WT” value worked out at 2.93. Also, at hNaV1.6 channel, 1.33 µM corresponded to half-maximal inhibition (IC50) and the “hNaV1.6 IC50 versus WT” value came to 5.89.
